From patent publication US20230278954A1, “BRANCHED LIPID COMPOUDS” (priority 2020, published 2023)

Legend:
HEK-Blue Null2 cells = experiment: TLR- control cell line HEK-Blue Null2 (control for mouse TLR2); type: cell-based
Description: (§1) The secreted embryonic alkaline phosphatase (SEAP) reporter is under the control of a promoter inducible by the transcription factor NF-κB. This reporter gene allows the monitoring of signaling through the TLR, based on the activation of NF-κB. In a 96-well plate (200 µL total volume) containing the appropriate cells (50,000 - 75,000 cells/well), 20 µL of the test article or the positive control ligand (HKLC) is added to the wells. The media added to the wells is designed for the detection of NF-κB induced SEAP expression. After a 16-24-hour incubation the optical density (OD) is read at 650 nm on a Molecular Devices SpectraMax 340PC absorbance detector.

mouse TLR2 = molecular target: T1, mouse TLR2 (Mus musculus, UniProt Q9QUN7); experiment: HEK-Blue mTLR2 dose response (SEAP reporter); type: cell-based
T1 construct: expressed in transfected cells; host or cells: HEK-Blue mTLR2 cells
T1 sequence (Q9QUN7 25-784): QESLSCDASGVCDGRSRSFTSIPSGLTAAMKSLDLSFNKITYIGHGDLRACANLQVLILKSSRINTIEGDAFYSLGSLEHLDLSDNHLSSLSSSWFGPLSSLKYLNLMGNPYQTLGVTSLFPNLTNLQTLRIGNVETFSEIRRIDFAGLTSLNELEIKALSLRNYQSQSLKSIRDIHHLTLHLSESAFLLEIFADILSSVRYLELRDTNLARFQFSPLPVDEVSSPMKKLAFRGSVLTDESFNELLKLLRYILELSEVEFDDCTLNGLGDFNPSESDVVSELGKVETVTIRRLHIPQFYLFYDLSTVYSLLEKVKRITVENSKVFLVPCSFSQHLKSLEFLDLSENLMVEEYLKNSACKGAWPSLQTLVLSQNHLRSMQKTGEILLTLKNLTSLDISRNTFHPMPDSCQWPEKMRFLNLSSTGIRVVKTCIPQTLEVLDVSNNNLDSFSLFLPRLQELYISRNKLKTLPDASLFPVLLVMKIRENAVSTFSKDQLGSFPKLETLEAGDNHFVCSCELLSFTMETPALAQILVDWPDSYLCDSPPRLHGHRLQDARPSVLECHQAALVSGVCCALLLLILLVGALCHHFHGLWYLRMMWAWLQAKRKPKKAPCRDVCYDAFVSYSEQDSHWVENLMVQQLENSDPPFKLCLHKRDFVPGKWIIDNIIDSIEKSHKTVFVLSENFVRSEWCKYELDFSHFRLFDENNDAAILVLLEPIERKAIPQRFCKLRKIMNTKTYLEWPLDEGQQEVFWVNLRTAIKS
T1 sequence (Q9Y2C9 32-796 partner): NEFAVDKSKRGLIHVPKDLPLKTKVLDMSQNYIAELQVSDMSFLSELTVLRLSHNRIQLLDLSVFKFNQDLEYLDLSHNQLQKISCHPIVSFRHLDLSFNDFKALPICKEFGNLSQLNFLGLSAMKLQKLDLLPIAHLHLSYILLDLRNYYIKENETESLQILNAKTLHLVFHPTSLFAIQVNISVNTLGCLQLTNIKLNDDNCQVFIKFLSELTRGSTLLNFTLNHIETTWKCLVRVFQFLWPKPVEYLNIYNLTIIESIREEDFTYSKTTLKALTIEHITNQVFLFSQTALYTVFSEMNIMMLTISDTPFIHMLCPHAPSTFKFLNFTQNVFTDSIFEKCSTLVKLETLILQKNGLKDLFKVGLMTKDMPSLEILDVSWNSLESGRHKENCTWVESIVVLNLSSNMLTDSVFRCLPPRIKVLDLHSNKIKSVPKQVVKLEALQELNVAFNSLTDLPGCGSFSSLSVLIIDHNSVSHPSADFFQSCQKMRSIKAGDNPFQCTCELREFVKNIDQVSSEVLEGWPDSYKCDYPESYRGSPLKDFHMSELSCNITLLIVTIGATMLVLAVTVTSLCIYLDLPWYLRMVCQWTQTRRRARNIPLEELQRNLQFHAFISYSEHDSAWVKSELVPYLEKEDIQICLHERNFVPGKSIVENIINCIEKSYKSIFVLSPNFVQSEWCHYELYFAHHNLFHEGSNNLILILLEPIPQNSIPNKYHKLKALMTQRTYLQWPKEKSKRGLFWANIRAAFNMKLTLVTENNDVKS
Description: Toll-Like Receptor (TLR) stimulation is tested by assessing NF-KB activation in the TLR expressing cell lines. HEK-Blue h/mTLR2 cells have been stably transfected with human or mouse TLR2 and CD14. The activity of the test articles are tested on human and mouse TLR2, as potential agonists. The test articles are evaluated at seven concentrations and compared to control ligands (see list below). These steps are performed in triplicate.
A 5 µg/mL working stock was then prepared for each compound from the 20 µg/mL dilution in sterile PBS. Starting from the 5 µg/mL working stock, a series of six 1:4 serial dilutions were made by mixing 100 µL of the previous highest dilution with 300 µL sterile PBS.
as §1

[1] = Stability III: accelerated aging at 40° C., 3 or 6 weeks, HPLC recovery; type: physicochemical
Description: Recovery of the target compound was assessed by HPLC, and the values as a percentage of the reference sample are reported in Table 14 and in FIG. 5.

human TLR2 = molecular target: T2, human TLR2 (Homo sapiens, UniProt O60603); experiment: Activation of human TLR2 IV: HEK-BLUE-hTLR2 assay; type: cell-based; conditions: HEK-BLUE-hTLR2 cells, FIG. 4
T2 construct: expressed in transfected cells; host or cells: HEK-Blue hTLR2 cells
T2 sequence (O60603 21-784): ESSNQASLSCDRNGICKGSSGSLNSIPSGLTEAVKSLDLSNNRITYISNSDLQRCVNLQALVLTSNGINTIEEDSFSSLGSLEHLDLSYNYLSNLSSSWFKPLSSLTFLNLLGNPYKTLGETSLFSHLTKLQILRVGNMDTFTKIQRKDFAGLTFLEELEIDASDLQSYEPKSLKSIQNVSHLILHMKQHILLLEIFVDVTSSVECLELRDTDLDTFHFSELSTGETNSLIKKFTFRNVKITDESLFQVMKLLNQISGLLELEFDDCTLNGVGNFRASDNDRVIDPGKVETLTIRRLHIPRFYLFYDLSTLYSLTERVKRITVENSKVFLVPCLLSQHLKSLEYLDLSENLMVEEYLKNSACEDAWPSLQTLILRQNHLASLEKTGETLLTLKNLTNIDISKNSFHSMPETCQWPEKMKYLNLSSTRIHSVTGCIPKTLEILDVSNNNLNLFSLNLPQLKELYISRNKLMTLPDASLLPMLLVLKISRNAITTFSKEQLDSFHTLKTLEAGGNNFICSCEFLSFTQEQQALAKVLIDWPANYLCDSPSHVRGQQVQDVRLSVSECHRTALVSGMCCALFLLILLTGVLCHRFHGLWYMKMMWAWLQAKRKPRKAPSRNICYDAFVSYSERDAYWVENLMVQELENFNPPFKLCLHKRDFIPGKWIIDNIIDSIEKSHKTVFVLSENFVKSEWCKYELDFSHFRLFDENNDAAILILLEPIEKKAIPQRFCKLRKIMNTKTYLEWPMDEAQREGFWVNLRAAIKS
T2 sequence (Q9Y2C9 32-796 partner): as the sequence (Q9Y2C9 32-796 partner) above
Description: HEK-BLUE-hTLR2 cells are designed for studying the stimulation of human TLR2 (hTLR2) by monitoring the activation of NF-kB. HEK-BLUE-hTLR2 cells are obtained by co-transfection of the hTLR2 and SEAP (secreted embryonic alkaline phosphatase) reporter genes into HEK293 cells. Stimulation with a TLR2 ligand activates NF-kB which induces the production of SEAP. HEK-BLUE-hTLR2 cells were purchased from InvivoGen (San Diego, CA, USA). […] xii) Add immediately […] of the cell suspension per well of the plate which contains the solution of the compounds. The plate is then returned to the incubator at 37° C. for 16 hr and was read at 620 nm by using an ELISA reader.

Structure (SMILES) | stimulatory response in HEK-Blue Null2 (mouse) cells (in words) (HEK-Blue Null2 cells) | stimulatory / agonist activity for mTLR2 (in words) (mouse TLR2) | stability under accelerated storage conditions (in words) [1] | activity at TLR2 (in words) (human TLR2)
CCCCCCCCCCCCCCC(C)C(=O)OC[C@H](CSC[C@H](N)C(=O)N[C@@H](CO)C(=O)NCCOCCOCCOCCOCCOCCOCCOCCOCCOCCOCCOCCOCCOCCOCCOCCOCCOCCOCCOCCOCCOCCOCCOCCOCCOCCOCCOCCOCCC(=O)NCC(N)=O)OC(=O)C(C)CCCCCCCCCCCCCC (stereo partly drawn) [Compound B4] | not observed | stimulatory activity | – | –
CCCCCCCCCCCCCCC(C)C(=O)OCC[C@H](CSC[C@H](N)C(=O)N[C@@H](CO)C(=O)NCCOCCOCCOCCOCCOCCOCCOCCOCCOCCOCCOCCOCCOCCOCCOCCOCCOCCOCCOCCOCCOCCOCCOCCOCCOCCOCCOCCOCCC(=O)NCC(N)=O)OC(=O)C(C)CCCCCCCCCCCCCC (stereo partly drawn) [Compound B12] | not observed | stimulatory activity | excellent stabilities | significant activity
